# Patent publication EP0187057A1, “2-Phenyl-isopropyl-allophanate, preparation and pharmaceutical application” (priority 1984, dated 1986)
# Values joined by “and” are separate entries in the source; they are usually repeats but may differ in a detail not shown here. Identical values can stand only once. Like-named read-outs stand apart in the source and are kept apart here.
# Assays:
# [1] = system: force musculaire de la souris; test: Weights test (muscular strength); type: in vivo
# From the text: (§1) On a donc étudié les effets dépresseurs que peuvent exercer des doses croissantes de SCS 289 sur : • - la motricité spontanée de la souris; • - sa curiosité, quantifiée par la méthode de la planche à trous; • - son agilité, évaluée par l'épreuve de la traction de Boissier et Simon; • - sa force musculaire, mesurée par l'épreuve des poids.
# (§2) Les essais ont été pratiqués sur des groupes de 10 souris dont les performances motrices ont été mesurées à deux reprises : avant et une heure après traitement par le SCS 289 administré, par voie digestive à des doses allant de 10 à 200 mg/kg, actives vis-à-vis des convulsions pentétrazoliques et des crises psychomotrices. A noter que l'épreuve de la planche à trous utilisée pour chiffrer la curiosité des animaux (décompte du nombre de visites des trous) n'est pratiquée qu'une seule fois, le comportement explorateur des animaux traités étant alors comparé à celui des témoins.
# (§3) Les résultats obtenus dans chaque groupe ont permis de calculer la DA50 capable de diminuer de 50 X les performances motrices initiales ou de diminuer de 50% la curiosité des souris traitées par rapport à celle des témoins.
# (§4) Les expérimentations comportementales précédemment décrites ont été appliquées à des animaux recevant SCS 35 et SCS 289 aux doses de 10 et 25 mg/kg.
# [2] = Weights test (muscular strength); type: in vivo, souris; settings: mouse, in vivo, po; dose diminishing initial performance by 50 %; read-out: DA50 force musculaire
# From the text: as §1, §2, §3, §4
# [3] = Acute toxicity by the digestive route, lethality after one week of observation; settings: in vivo, po, rat; for mortality at 168 h: read-out: Pourcentage de létalité Rats
# Protocol: Des doses croissantes de produit (SCS 289) ont été administrées, par voie digestive, sous forme de suspensions gommeuses, sous le volume de 0,50 ml/20 g de poids corporel chez la souris et 0,50 ml/100 g de poids corporel chez le rat (de 500 à 4000 mg/kg avec des intervalles de 500 mg/kg).
# Les animaux ont été maintenus en observation pendant une semaine, tout d'abord dans le laboratoire (avec un chauffage d'appoint) jusqu'au réveil des animaux endormis, puis dans l'unité animale conditionnée et climatisée.
# Le taux de mortalité relevé dans chaque lot de rats et de souris au terme de la semaine d'observation a été le suivant :
# Les valeurs des DL50, calculées par la méthode de Miller et Tainter sont respectivement de : • - 2300 ± 102 m^g/k^g chez la souris; • - 2050 + 220 mg/kg chez le rat.
# Narcotic effect = settings: mouse, in vivo; souris; read-out: DE50 narcotique
# Protocol: En ce qui concerne la maniabilité, la comparaison des doses de SCS 289 exerçant, chez la souris, des effets létaux et anticonvulsivants permet de prévoir une marge thérapeutique assez confortable (dans le domaine du "petit mal") : • - DL50 = 2300 + 102 mg/kg; • - DE50 narcotique, comprise entre 1 et 2 g/kg; • - DE50 anticonvulsivante vis-à-vis du ^pentétrazol; • - DE50 anticonvulsivante vis-à-vis des crises psychomotrices.
# agilité de la souris = test: Traction test of Boissier and Simon (agility); type: in vivo
# From the text: as §1, §2, §3, §4
# [4] = Traction test of Boissier and Simon (agility); type: in vivo, souris; settings: mouse, in vivo, po; dose diminishing initial performance by 50 %; read-out: DA50 agilité
# From the text: as §1, §2, §3, §4
# [5] = system: motricité spontanée de la souris; test: Spontaneous motor activity; type: in vivo
# From the text: as §1, §2, §3, §4
# [6] = Spontaneous motor activity; type: in vivo, souris; settings: mouse, in vivo, po; dose diminishing initial performance by 50 %; read-out: DA50 motricité
# From the text: as §1, §2, §3, §4
# curiosité de la souris = test: Hole-board test (curiosity, exploratory behaviour); type: in vivo
# From the text: as §1, §2, §3, §4
# [7] = Hole-board test (curiosity, exploratory behaviour); type: in vivo, souris; settings: mouse, in vivo, po
# From the text: as §1, §2, §3, §4
# [8] = 10 mg/kg voie digestive, one hour after treatment
structure (smiles),measurement,setting,value
"CC(C)OC(=O)N(C(N)=O)c1ccccc1 [SCS 289, phényl-2 allophanate d'isopropyle]",Propriétés déficitaires motrices sur la force musculaire (pourcentage de diminution des scores),[1]; [8],"3,8%"
same,Propriétés déficitaires motrices sur la force musculaire (pourcentage de diminution des scores),[1]; 25 mg/kg,"8,3%"
same,Propriétés déficitaires motrices sur la force musculaire (pourcentage de diminution des scores),[1]; 50 mg/kg,33%
same,Propriétés déficitaires motrices sur la force musculaire (pourcentage de diminution des scores),[1]; 75 mg/kg,"31,9%"
same,Propriétés déficitaires motrices sur la force musculaire (pourcentage de diminution des scores),[1]; 100 mg/kg,"80,4%"
same,Propriétés déficitaires motrices sur la force musculaire (pourcentage de diminution des scores),[1]; 150 mg/kg,100%
same,Propriétés déficitaires motrices sur la force musculaire (pourcentage de diminution des scores),[1]; 200 mg/kg,100%
same,ED50 at 1 h,[2],63 mg/kg
same,LD50 at 168 h,"[3]; voie digestive, méthode de Miller et Tainter, read-out: DL50",2050 mg/kg
same,mortality at 168 h,[3]; 500 mg/kg voie digestive,0%
same,mortality at 168 h,[3]; 1000 mg/kg voie digestive,15%
same,mortality at 168 h,[3]; 1500 mg/kg voie digestive,30%
same,mortality at 168 h,[3]; 2000 mg/kg voie digestive,55%
same,mortality at 168 h,[3]; 2500 mg/kg voie digestive,60%
same,mortality at 168 h,[3]; 3000 mg/kg voie digestive,65%
same,mortality at 168 h,[3]; 3500 mg/kg voie digestive,80%
same,mortality at 168 h,[3]; 4000 mg/kg voie digestive,100%
same,ED50,Narcotic effect,1000 to 2000 mg/kg
same,Propriétés déficitaires motrices sur l'agilité (pourcentage de diminution des scores),agilité de la souris; [8],"6,7%"
same,Propriétés déficitaires motrices sur l'agilité (pourcentage de diminution des scores),agilité de la souris; 25 mg/kg,20%
same,Propriétés déficitaires motrices sur l'agilité (pourcentage de diminution des scores),agilité de la souris; 50 mg/kg,"41,7%"
same,Propriétés déficitaires motrices sur l'agilité (pourcentage de diminution des scores),agilité de la souris; 75 mg/kg,"77,3%"
same,Propriétés déficitaires motrices sur l'agilité (pourcentage de diminution des scores),agilité de la souris; 100 mg/kg,90%
same,Propriétés déficitaires motrices sur l'agilité (pourcentage de diminution des scores),agilité de la souris; 150 mg/kg,100%
same,Propriétés déficitaires motrices sur l'agilité (pourcentage de diminution des scores),agilité de la souris; 200 mg/kg,100%
same,ED50 at 1 h,[4],42 mg/kg
same,Propriétés déficitaires motrices sur la motricité (pourcentage de diminution des scores),[5]; [8],0%
same,Propriétés déficitaires motrices sur la motricité (pourcentage de diminution des scores),[5]; 25 mg/kg,20%
same,Propriétés déficitaires motrices sur la motricité (pourcentage de diminution des scores),[5]; 50 mg/kg,25%
same,Propriétés déficitaires motrices sur la motricité (pourcentage de diminution des scores),[5]; 75 mg/kg,30%
same,Propriétés déficitaires motrices sur la motricité (pourcentage de diminution des scores),[5]; 100 mg/kg,50%
same,Propriétés déficitaires motrices sur la motricité (pourcentage de diminution des scores),[5]; 150 mg/kg,100%
same,Propriétés déficitaires motrices sur la motricité (pourcentage de diminution des scores),[5]; 200 mg/kg,100%
same,ED50 at 1 h,[6],120 mg/kg
same,Nb de visites des trous Traités,"curiosité de la souris; 10 mg/kg, par souris pendant cinq minutes, témoins 26,5",27
same,Nb de visites des trous Traités,"curiosité de la souris; 25 mg/kg, témoins 26,4","27,4"
same,Nb de visites des trous Traités,"curiosité de la souris; 50 mg/kg, témoins 24,2","23,6"
same,Nb de visites des trous Traités,"curiosité de la souris; 75 mg/kg, témoins 27","21,4"
same,Nb de visites des trous Traités,"curiosité de la souris; 100 mg/kg, témoins 25,4","8,6"
same,Nb de visites des trous Traités,"curiosité de la souris; 150 mg/kg, témoins 24,2",0
same,Nb de visites des trous Traités,"curiosité de la souris; 200 mg/kg, témoins 24,2",0
same,DA50 capable de diminuer de 50 % la curiosité de la souris,"curiosité de la souris; méthode de Miller et Tainter, 60 min","82,5 ± 7,6 mg/kg and ~82 mg/kg"
same,ED50 at 1 h,"[7]; méthode de Miller et Tainter, read-out: DA50 capable de diminuer de 50 % la curiosité de la souris",82.5 mg/kg
same,selectivity ratio,"[7]; souris, read-out: DA50 curiosité par rapport aux doses anticonvulsivantes (pentétrazol / crises psychomotrices)",15 to 18
